Results as given in a melting point compilation (Tetko et al.; mined from patent text by program, amines drawn as free bases though some values may be those of a salt).

SMILES	melting point [°C]
O=C1C(=c2[nH]c(=c3[nH]c(=C4C(=O)c5ccccc5C4=O)c4ccccc34)c3ccccc23)C(=O)c2ccccc21	> 300
COC1=CC(=O)CC(NC(=O)Nc2ccccc2)C1 (stereo unspecified)	183 to 185
NS(=O)(=O)c1ccccc1OCCO	94 to 99
Cc1ccc2[nH]c(=O)c(C(=O)NC3CCCCC3)c(O)c2c1	269
COc1cc(Cl)c(N)cc1C(=O)N[C@H]1CCNC[C@H]1OC (relative stereo)	192
COC(=O)c1c(CC#N)ncn1C1CCCCO1 (stereo unspecified)	82 to 83
CCCc1nc2c(N)nc3ccccc3c2n1CC1(O)CCC1	228 to 229
Cc1ccc(S(=O)(=O)OCC2Cc3cccc(-c4ccccc4C(F)(F)F)c3O2)cc1 (stereo unspecified)	116 to 118
COc1ccc(CCc2cc3c(s2)NC(=S)CN=C3c2ccccc2Cl)cc1	185 to 186
CC1(CCN2C(=O)c3cccc([N+](=O)[O-])c3C2=O)OCCO1	90
C=CCC(N)(Cc1ccccc1)C(N)=O (stereo unspecified)	120 to 121
COc1cccc2c1C(=O)C(c1c(Cl)cccc1Cl)C2=O (stereo unspecified)	163 to 165
COc1c(C(=O)NC2CN3CCC2CC3)cc(Cl)c2c1CCCN2 (stereo unspecified)	105 to 108
COC(=O)c1c(F)cc(O)cc1F	178 to 180
N#Cc1ccc(C=S)c(-c2ccccc2)c1	88
COC(=O)CCC#Cc1cc(Cl)ccc1[N+](=O)[O-]	75 to 78
O=C(COc1ccc(Cl)cc1)c1ccc(Br)s1	128 to 130
CC(=O)Nc1cc2c(cc1C#N)C=CC(C)(C)O2	136 to 137
CC(=O)On1cc(-c2ccccc2)c(=O)c(-c2cccc(C(F)(F)F)c2)c1	232 to 235
COC(=O)c1cc(OC)c(OC)cc1OC	91.5 to 92.5
CCOC(=O)OCC1(C)COC(=O)OC1	68 to 69
CCOC(=O)C1=C(N)NC(CF)=C(C(=O)OCC)C1c1cccc([N+](=O)[O-])c1 (stereo unspecified)	177 to 178
CC1(C)Oc2cc(Cl)c(C#N)cc2C2OC21 (stereo unspecified)	129 to 132
O=c1nc(-c2ccccc2F)c2ccccc2[nH]1	281 to 285
CN(CCc1ccccc1)C(=O)Cn1cc(C=CC(=O)N2CCCC2)c2cc(OCc3ccccc3)ccc21	185 to 187
CN(C)CC(=O)Nc1ccccc1[N+](=O)[O-]	44 to 47

SMILES	melting point [°C]
CNC(=O)CNc1cccc2c1C(=O)N(C1CCC(=O)NC1=O)C2=O (stereo unspecified)	210 to 212
CCn1cc(C(=O)O)c(=O)c2cc(F)c(N3CCNC(c4cc(C)sc4C)C3)cc21 (stereo unspecified)	248 to 250
CC(C)c1nsc2ccc(-n3c(=O)cc(C(F)(F)F)n(C)c3=O)cc12	139 to 140
O=C(NC1CCN(Cc2ccccc2)C1)C12CC3CC(CC(C3)C1)C2 (stereo unspecified)	130 to 132
COc1cc2c(CCNC(C)=O)c[nH]c2cc1F	158 to 159
COc1cccc(C2(C(N)=O)CCCCC2)c1	120 to 122
Cc1ccc(-c2c(C#N)cccc2C#N)cc1	184 to 186
CN1C(C)(C)CC(O)CC1(C)C	70 to 71
O=C(CN1CCC(n2c(=O)[nH]c3ccccc32)CC1)Nc1ccc(C2CCCCC2)cc1	130 to 132
COc1ccc(-c2oc3ccc(F)cc3c(=O)c2OCCOc2cccc(C(C)=C3SC(=O)NC3=O)c2)cc1OC	228 to 230
CC(=O)OC1CSC(Oc2cnc(Cl)c(F)c2)C(OC(C)=O)C1OC(C)=O (stereo unspecified)	158 to 162
COc1cc2c(O)c3c(c(-c4ccc5c(c4)OCO5)c2cc1OC)C(=O)OC3	280 to 282
COC(=O)C1CCc2cc(OC)ccc2C1=O (stereo unspecified)	82 to 84
O=C(O)CN(CC(CO)N(CCCO)CC(=O)O)CC(CO)N(CCCO)CC(=O)O (stereo unspecified)	173 to 177
CNc1nc(-c2cccc(NC(=O)c3ccc(N4CCCC4)nc3)c2)c2cc(OC)c(OC)cc2n1	239 to 241
CS(=O)(=O)c1ccc(C(CC2CCCC2)C(=O)Nc2nccs2)cc1F (stereo unspecified)	200 to 202
N#Cc1ccc(-c2sc(N)c(C(=O)c3ccc(Cl)cc3)c2CN(C2CCCCC2)C2CCCCC2)cc1	196 to 200
Cc1nc(N2CCN(CCC3CC3)C2=O)sc1-c1cc[nH]n1	147 to 149
CN(C)S(=O)(=O)c1cnc(NC(=O)[C@H](CC2CCCC2)c2ccc(S(C)(=O)=O)c(Cl)c2)cn1	100
CCOC(=O)Oc1cc2occ(C(=O)Cl)c(=O)c2cc1OC(=O)OCC	89 to 92
Nc1cccc(Cn2c(-c3ccccc3Cl)cc3ccc(Oc4cncnc4)cc32)n1	115 to 117
Nc1cc2c(Nc3ccc(F)c(Br)c3)ncnc2cn1	269 to 271
COc1ccc2c(c1)Sc1c(cc(OC)c(OC(C)=O)c1Br)N2C(=O)OC(C)OC(C)=O (stereo unspecified)	134 to 135
COC(=O)c1cc(Cl)c(N)c2c1OCCCN2	92 to 95
COc1ccc(-n2c(-c3sc(NC(=O)c4ccccc4)nc3-c3ccccc3)nc3ccccc3c2=O)cc1	> 275
Cc1nsc(N=Nc2ccc(N(CCO)CCO)cc2NC(=O)C(C)C)c1C#N	152 to 154

Further lines, results first:

melting point [°C]	SMILES
252 to 254	Cc1cc(-c2nc3cccnn3c2-c2ccnc(NC(=O)c3cncc(Cl)c3)c2)ccc1F
179 to 180	CC(C)n1cnc(-c2ccc(F)cc2)c1-c1ccncc1
148	CCCn1ncnc1COc1nn2c(-c3ccc(F)cc3)nncc2c1-c1ccccc1F
95 to 97	COc1ccc(COC(=O)N[C@@H](CC(N)=O)C(=O)N[C@@H](Cc2ccccc2)[C@H](O)C(=O)N2CCC[C@H]2C(=O)NC(C)(C)C)cc1
202	CC(=O)NCCCc1c(N)ccc2c1C(=O)c1ccccc1C2=O
118 to 121	COc1ccc(CNC(=O)c2cc3c(=O)n(CCS(=O)(=O)c4ccccc4)c(=O)n(C)c3s2)cc1
187 to 188	CS(=O)(=O)Nc1ccc(NC(=O)CCCc2ccc(N=C(N)c3cccs3)cc2)cc1
113	Nc1ccc(N2CCN(CCCN3c4cccc5cccc(c45)S3(=O)=O)CC2)cc1
129 to 134	O=C1NC(=O)c2cc(CCCCCN3CCC(c4nc(-c5ccncc5)c(-c5ccc(Cl)c(Cl)c5)[nH]4)CC3)ccc21
146 to 149	Cc1cccc(-c2[nH]c(C(C)(C)C)nc2-c2cccc(-c3ccc(C(=O)NC4CCOCC4)cc3)c2)n1
236 to 237	CC(C)(Cc1ccccc1)C(NC(=O)c1ccc(Cl)cc1)Nc1c(Nc2cccnc2Cl)c(=O)c1=O (stereo unspecified)
88 to 90	CCOC(=O)C(CNC(C)=O)c1cn(C(=O)OCC)c2ccc(OC)cc12 (stereo unspecified)
47 to 49	Cc1cccc(NC(=O)n2nc(Oc3cccc(C(F)(F)F)c3)cc2C)c1
38 to 40	Cc1ccc([C@@H](O)C=CC(C)(C)C)cc1
88 to 89	CCCOc1ccc(S(=O)(=O)N2CCN(CCOC(=O)C(C)C)CC2)cc1-c1nc2c(CCC)cn(CC)c2c(=O)[nH]1
195 to 198	Cn1nc(C(=O)O)c(=O)n(-c2ccccc2)c1=O
> 241	COc1ccccc1CN[C@H]1CCCN[C@H]1Cc1ccccc1 (relative stereo)
113	CCCCSc1nc(=O)[nH]cc1F
174 to 178	N#CCCNC(=O)c1cccc(-c2cccc3cc(Cc4cccc(C(F)(F)F)c4)[nH]c23)c1
123 to 124	COc1ccc(-n2nc(C(F)F)cc2-c2ccc(S(C)=O)cc2)cc1 (stereo unspecified)
> 200	Cc1ccc(S(=O)(=O)N(CCc2cccs2)CC(=O)N[C@@H](Cc2ccccc2)C(=O)O)cc1
140 to 141	Cc1ccccc1-c1nc(OCCN(C)C)ncc1N(C)C(=O)C(C)(C)c1cc(C(F)(F)F)cc(C(F)(F)F)c1

melting point [°C]	SMILES
200 to 201	CC(CS(=O)(=O)c1ccc(-c2ccc3c(c2)OCO3)cc1)N(O)C=O (stereo unspecified)
152 to 153	CN(C)CCN1C(=O)C(NC(=O)c2ccc(Cl)cc2)C(C)(C)SC1=S (stereo unspecified)
71 to 73	CCCCCCCCOC(=O)C(CC(C)C)NC(=O)c1cc([N+](=O)[O-])cc([N+](=O)[O-])c1 (stereo unspecified)
126 to 128	CCCCCS(=O)(=O)NC(=O)OCc1cc(OC(C)C)nn1Cc1ccc(Cl)cc1Cl
153 to 154	CC(CNS(=O)(=O)c1ccc(-c2ccccn2)s1)N1CCC(Oc2ccc(F)c(F)c2)CC1 (stereo unspecified)
178 to 180	CNc1nc(-c2cccc(NC(=O)c3ccc(O)cc3)c2)c2cc(OC)c(OC)cc2n1
213	O=c1[nH]c2ccccc2c(=O)n1CCN1CCC(C(O)c2ccc(F)cc2)CC1 (stereo unspecified)
253	Cc1ccc(C=NNC(=O)c2ccc(O)cc2)cc1
192 to 193	CCCCCC(CCn1ccnc1)Sc1ccc(C(C)(C)C)cc1 (stereo unspecified)
143 to 144	CCCNC(=O)CCCc1ccc2c(c1)c(Cc1ccc(C(=O)O)cc1OC)cn2CCC
96 to 101	CCCCc1nc2c(C)cccc2n1Cc1cc(C(=O)OC)no1
157 to 159	CC(C)c1nc(CCOC(=O)OCCc2nc(C(C)C)c(Sc3cc(Cl)cc(Cl)c3)n2C)n(C)c1Sc1cc(Cl)cc(Cl)c1
63 to 64	CC(=O)[C@@H]1C(=O)N(C(=O)OC(C)(C)C)[C@@H]1c1ccccc1
> 300	O=c1c(Cl)nc2ccccc2n1-c1ccc(Cl)cc1
147	CCCCSc1ccc(C(=O)Nc2ccc3cc(CN4CCCC4)cnc3c2C)cc1
202	COc1ccc(CCNC(=O)C=Cc2ccc(C)cc2C)cc1S(N)(=O)=O
103 to 105	CCOC(=O)c1cn(-c2cccc(Oc3ccc(Br)cn3)c2)cn1
214 to 215	Cc1cc(C)c2c(c1O)C(NCc1ccccc1)=C(c1ccccc1)C2
245 to 246	Cc1cccc(COc2ccc(CC(NC(=O)c3cn4ccc(-c5ccc(Cl)cc5)cc4n3)C(=O)O)cc2)c1 (stereo unspecified)
144 to 145	COc1ccc(C=Cc2ccc(C)cc2)c(Cl)c1
86 to 89	COc1cccc2c(Cl)c(CCCCl)cnc12
107 to 108	CCCCCCCCCCCCC1(C(C(=O)Nc2c(C(C)C)cccc2C(C)C)c2ccccc2)C=CNO1 (stereo unspecified)
